# According to ChEMBL document CHEMBL3885881, “DrugMatrix”:
# Species: Rattus norvegicus
# Assay: DrugMatrix - Regimen: Daily Repeat
# Type: toxicity, organism-based, Sprague-Dawley
# Design: regimen Daily Repeat, gender Male, age 6-8 weeks
# Settings: in vivo, po, route oral GAVAGE, vehicle 100 % WATER; for ABSOLUTE BASOPHIL / ABSOLUTE EOSINOPHIL / ABSOLUTE LYMPHOCYTE / ABSOLUTE MONOCYTE / ABSOLUTE SEGMENTED NEUTROPHIL / BASOPHIL / EOSINOPHIL / ERYTHROCYTE COUNT / HEMATOCRIT / HEMOGLOBIN / LEUKOCYTE COUNT / LYMPHOCYTE / MEAN CORPUSCULAR HEMOGLOBIN / MEAN CORPUSCULAR HEMOGLOBIN CONCENTRATION / MEAN CORPUSCULAR VOLUME / MONOCYTE / NEUTROPHIL / NUCLEATED RED BLOOD CELLS / PLATELET COUNT: tissue Blood; for ALANINE AMINOTRANSFERASE / ALBUMIN / ALKALINE PHOSPHATASE / ASPARTATE AMINOTRANSFERASE / BLOOD UREA NITROGEN / CARBON DIOXIDE / CHLORIDE / CHOLESTEROL / CREATINE PHOSPHOKINASE / CREATININE / GLUCOSE / LACTATE DEHYDROGENASE / LIPASE / PHOSPHORUS / POTASSIUM / SODIUM / TOTAL BILIRUBIN / TOTAL PROTEIN / URIC ACID: tissue Plasma
# [1] = 0 mg/kg, 72 h, dose level Control, time 3 day
# [2] = 0 mg/kg, 120 h, dose level Control, time 5 day
# [3] = 60 mg/kg, 72 h, dose level Low, time 3 day
smiles,measurement,setting,value
CC(C)C[C@H](NC(=O)[C@@H](O)[C@H](N)Cc1ccccc1)C(=O)O [UBENIMEX],ABSOLUTE BASOPHIL,[1],0 CELLS/uL
same,ABSOLUTE EOSINOPHIL,[1],168.33 CELLS/uL
same,ABSOLUTE LYMPHOCYTE,[1],13654.17 CELLS/uL
same,ABSOLUTE MONOCYTE,[1],121 CELLS/uL
same,ABSOLUTE SEGMENTED NEUTROPHIL,[1],1223.17 CELLS/uL
same,BASOPHIL,[1],0%
same,EOSINOPHIL,[1],1.17%
same,ERYTHROCYTE COUNT,[1],5.7 x10E6/uL
same,HEMATOCRIT,[1],35.33%
same,HEMOGLOBIN,[1],13.97 G/DL
same,LEUKOCYTE COUNT,[1],15.17 x10E3/uL
same,LYMPHOCYTE,[1],89.83%
same,MEAN CORPUSCULAR HEMOGLOBIN,[1],24.53 pg
same,MEAN CORPUSCULAR HEMOGLOBIN CONCENTRATION,[1],39.53 G/DL
same,MEAN CORPUSCULAR VOLUME,[1],62.05 fL
same,MONOCYTE,[1],0.83%
same,NEUTROPHIL,[1],8.17%
same,NUCLEATED RED BLOOD CELLS,[1],0 /100WBC
same,PLATELET COUNT,[1],1312.17 x10E3/uL
same,ALANINE AMINOTRANSFERASE,[1],50.83 u/L
same,ALBUMIN,[1],4.18 G/DL
same,ALKALINE PHOSPHATASE,[1],334.17 u/L
same,ASPARTATE AMINOTRANSFERASE,[1],82.17 u/L
same,BLOOD UREA NITROGEN,[1],15.5 mg/dL
same,CARBON DIOXIDE,[1],31.33 mmol/L
same,CHLORIDE,[1],99.83 MEQ/L
same,CHOLESTEROL,[1],76 mg/dL
same,CREATINE PHOSPHOKINASE,[1],272.17 u/L
same,CREATININE,[1],0.17 mg/dL
same,GLUCOSE,[1],143 mg/dL
same,LACTATE DEHYDROGENASE,[1],157.5 u/L
same,LIPASE,[1],9.33 u/L
same,PHOSPHORUS,[1],12.18 mg/dL
same,POTASSIUM,[1],6.78 MEQ/L
same,SODIUM,[1],143.9 MEQ/L
same,TOTAL BILIRUBIN,[1],0.22 mg/dL
same,TOTAL PROTEIN,[1],5.85 G/DL
same,URIC ACID,[1],1.7 mg/dL
same,ABSOLUTE BASOPHIL,[2],0 CELLS/uL
same,ABSOLUTE EOSINOPHIL,[2],0 CELLS/uL
same,ABSOLUTE LYMPHOCYTE,[2],13539.33 CELLS/uL
same,ABSOLUTE MONOCYTE,[2],177.67 CELLS/uL
same,ABSOLUTE SEGMENTED NEUTROPHIL,[2],2116.33 CELLS/uL
same,BASOPHIL,[2],0%
same,EOSINOPHIL,[2],0%
same,ERYTHROCYTE COUNT,[2],5.78 x10E6/uL
same,HEMATOCRIT,[2],36.13%
same,HEMOGLOBIN,[2],14.1 G/DL
same,LEUKOCYTE COUNT,[2],15.83 x10E3/uL
same,LYMPHOCYTE,[2],85.83%
same,MEAN CORPUSCULAR HEMOGLOBIN,[2],24.42 pg
same,MEAN CORPUSCULAR HEMOGLOBIN CONCENTRATION,[2],39 G/DL
same,MEAN CORPUSCULAR VOLUME,[2],62.55 fL
same,MONOCYTE,[2],0.83%
same,NEUTROPHIL,[2],13.33%
same,NUCLEATED RED BLOOD CELLS,[2],0.17 /100WBC
same,PLATELET COUNT,[2],1281.17 x10E3/uL
same,ALANINE AMINOTRANSFERASE,[2],55.5 u/L
same,ALBUMIN,[2],4.22 G/DL
same,ALKALINE PHOSPHATASE,[2],345 u/L
same,ASPARTATE AMINOTRANSFERASE,[2],92.5 u/L
same,BLOOD UREA NITROGEN,[2],16.5 mg/dL
same,CARBON DIOXIDE,[2],26.5 mmol/L
same,CHLORIDE,[2],103.5 MEQ/L
same,CHOLESTEROL,[2],78.5 mg/dL
same,CREATINE PHOSPHOKINASE,[2],381.5 u/L
same,CREATININE,[2],0.21 mg/dL
same,GLUCOSE,[2],161.83 mg/dL
same,LACTATE DEHYDROGENASE,[2],487.5 u/L
same,LIPASE,[2],10.17 u/L
same,PHOSPHORUS,[2],11.83 mg/dL
same,POTASSIUM,[2],6.4 MEQ/L
same,SODIUM,[2],146.95 MEQ/L
same,TOTAL BILIRUBIN,[2],0.22 mg/dL
same,TOTAL PROTEIN,[2],6.22 G/DL
same,URIC ACID,[2],1.83 mg/dL
same,ABSOLUTE BASOPHIL,[3],0 CELLS/uL
same,ABSOLUTE EOSINOPHIL,[3],99.33 CELLS/uL
same,ABSOLUTE LYMPHOCYTE,[3],13954.33 CELLS/uL
same,ABSOLUTE MONOCYTE,[3],91 CELLS/uL
same,ABSOLUTE SEGMENTED NEUTROPHIL,[3],1655.33 CELLS/uL
same,BASOPHIL,[3],0%
same,EOSINOPHIL,[3],0.67%
same,ERYTHROCYTE COUNT,[3],5.56 x10E6/uL
same,HEMATOCRIT,[3],33.13%
same,HEMOGLOBIN,[3],12.97 G/DL
same,LEUKOCYTE COUNT,[3],15.8 x10E3/uL
same,LYMPHOCYTE,[3],88.33%
same,MEAN CORPUSCULAR HEMOGLOBIN,[3],23.33 pg
same,MEAN CORPUSCULAR HEMOGLOBIN CONCENTRATION,[3],39.17 G/DL
same,MEAN CORPUSCULAR VOLUME,[3],59.53 fL
same,MONOCYTE,[3],0.67%
same,NEUTROPHIL,[3],10.33%
same,NUCLEATED RED BLOOD CELLS,[3],0 /100WBC
same,PLATELET COUNT,[3],1252.67 x10E3/uL
same,ALANINE AMINOTRANSFERASE,[3],58 u/L
same,ALBUMIN,[3],4.13 G/DL
same,ALKALINE PHOSPHATASE,[3],310.67 u/L
same,ASPARTATE AMINOTRANSFERASE,[3],96.67 u/L
same,BLOOD UREA NITROGEN,[3],15.67 mg/dL
same,CARBON DIOXIDE,[3],29.33 mmol/L
same,CHLORIDE,[3],100 MEQ/L
same,CHOLESTEROL,[3],80 mg/dL
same,CREATINE PHOSPHOKINASE,[3],475.33 u/L
same,CREATININE,[3],0.2 mg/dL
same,GLUCOSE,[3],142 mg/dL
same,LACTATE DEHYDROGENASE,[3],612.67 u/L
same,LIPASE,[3],9.67 u/L
same,PHOSPHORUS,[3],11.07 mg/dL
same,POTASSIUM,[3],6.61 MEQ/L
same,SODIUM,[3],143.5 MEQ/L
same,TOTAL BILIRUBIN,[3],0.17 mg/dL
same,TOTAL PROTEIN,[3],5.8 G/DL
same,URIC ACID,[3],1.47 mg/dL
